Test results reported in patent US12692221B2 (priority 2024, dated 2026).

Experiments:
alpha1D (h) = biological target: T1, alpha1D (h) (Homo sapiens, UniProt P25100); test: Radioligand binding alpha1D (h) (antagonist radioligand), [^3H]prazosin, CHO cells
T1 construct: expressed in transfected cells; host or cells: CHO cells
T1 sequence (P25100 1-572): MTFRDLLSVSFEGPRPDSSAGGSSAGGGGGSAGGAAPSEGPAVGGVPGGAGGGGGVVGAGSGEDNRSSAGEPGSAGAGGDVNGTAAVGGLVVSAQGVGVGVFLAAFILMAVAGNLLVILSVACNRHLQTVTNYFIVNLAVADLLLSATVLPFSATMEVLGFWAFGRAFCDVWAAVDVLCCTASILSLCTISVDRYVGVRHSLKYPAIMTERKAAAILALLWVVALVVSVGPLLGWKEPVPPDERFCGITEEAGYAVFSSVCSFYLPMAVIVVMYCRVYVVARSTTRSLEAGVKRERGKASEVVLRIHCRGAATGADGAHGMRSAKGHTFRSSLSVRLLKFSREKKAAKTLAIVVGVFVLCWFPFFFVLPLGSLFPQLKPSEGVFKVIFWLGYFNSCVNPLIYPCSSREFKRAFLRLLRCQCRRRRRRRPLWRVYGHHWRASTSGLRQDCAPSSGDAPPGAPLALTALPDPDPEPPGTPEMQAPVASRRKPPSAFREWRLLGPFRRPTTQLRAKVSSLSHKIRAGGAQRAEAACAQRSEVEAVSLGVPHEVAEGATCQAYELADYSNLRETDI
Experimental: (§1) Methods—Binding Assays: In vitro binding assays were performed using human recombinant receptors expressed in mammalian cell lines. Receptors were expressed in either HEK-293 or CHO cells depending on the target, and assay conditions (radioligand, concentration, nonspecific competitor, temperature, and incubation time) were optimized for each receptor. All assays were conducted in triplicate, and specific binding was quantified by scintillation counting as the detection method for each listed assay.
(§2) Specific binding was expressed as a percentage of control-specific binding, and percent inhibition was calculated using the formula in Ex. 8 above. Half-maximal inhibitory concentrations (IC50) were determined by non-linear regression analysis of the inhibition curves using the Hill equation (see Ex. 8). Inhibition constants (Ki) were calculated using the Cheng-Prusoff equation (see Ex. 8). KD values used in these calculations had been previously established for each receptor under the assay conditions (see Table 6). Data analysis was performed using software developed at Cerep and validated against SigmaPlot 4.0 for Windows.

N neuronal α4β2 (h) = biological target: T2, N neuronal α4β2 (h) (Homo sapiens, UniProt P17787+P43681); test: Radioligand binding N neuronal α4β2 (h) (agonist radioligand), [^3H]cytisine, SH-SY5Y cells; conditions: N neuronal alpha4beta2 (h) (agonist radioligand)
T2 construct: expressed in transfected cells; host or cells: SH-SY5Y cells
T2 sequence (P43681 29-627 limits assumed): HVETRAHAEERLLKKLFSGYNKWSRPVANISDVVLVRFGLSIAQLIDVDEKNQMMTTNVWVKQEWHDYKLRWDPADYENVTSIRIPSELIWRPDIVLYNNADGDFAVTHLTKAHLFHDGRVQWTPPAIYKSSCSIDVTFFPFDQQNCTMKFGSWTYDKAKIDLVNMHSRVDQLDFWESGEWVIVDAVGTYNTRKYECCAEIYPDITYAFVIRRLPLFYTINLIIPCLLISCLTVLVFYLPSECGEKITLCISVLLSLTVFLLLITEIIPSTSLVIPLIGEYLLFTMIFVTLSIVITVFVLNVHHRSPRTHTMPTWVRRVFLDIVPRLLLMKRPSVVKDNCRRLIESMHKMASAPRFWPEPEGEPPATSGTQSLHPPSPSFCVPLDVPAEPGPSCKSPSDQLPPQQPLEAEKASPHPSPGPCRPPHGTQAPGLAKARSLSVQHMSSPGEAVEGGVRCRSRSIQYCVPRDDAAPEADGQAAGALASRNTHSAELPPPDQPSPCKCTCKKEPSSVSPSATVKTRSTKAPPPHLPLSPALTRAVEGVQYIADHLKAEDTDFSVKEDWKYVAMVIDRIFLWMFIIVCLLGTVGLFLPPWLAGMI
T2 sequence (P17787 26-502): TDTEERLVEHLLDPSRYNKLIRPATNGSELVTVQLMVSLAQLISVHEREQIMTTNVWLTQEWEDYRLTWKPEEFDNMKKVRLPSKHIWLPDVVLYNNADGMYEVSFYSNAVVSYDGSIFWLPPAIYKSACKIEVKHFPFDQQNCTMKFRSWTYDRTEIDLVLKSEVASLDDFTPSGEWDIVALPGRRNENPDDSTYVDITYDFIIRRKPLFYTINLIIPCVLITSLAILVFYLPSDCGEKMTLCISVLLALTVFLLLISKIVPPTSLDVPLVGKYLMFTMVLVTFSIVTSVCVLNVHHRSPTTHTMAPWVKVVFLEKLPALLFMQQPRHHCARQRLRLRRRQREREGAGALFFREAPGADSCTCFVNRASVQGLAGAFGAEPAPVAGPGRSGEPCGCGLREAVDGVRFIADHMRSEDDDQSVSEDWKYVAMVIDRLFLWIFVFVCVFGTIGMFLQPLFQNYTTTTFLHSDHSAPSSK

CB2 (h) = biological target: T3, CB2 (h) (Homo sapiens, UniProt P34972); test: Radioligand binding CB2 (h) (agonist radioligand), [^3H]WIN 55212-2, CHO cells
T3 construct: expressed in transfected cells; host or cells: CHO cells
T3 sequence (P34972 whole entry): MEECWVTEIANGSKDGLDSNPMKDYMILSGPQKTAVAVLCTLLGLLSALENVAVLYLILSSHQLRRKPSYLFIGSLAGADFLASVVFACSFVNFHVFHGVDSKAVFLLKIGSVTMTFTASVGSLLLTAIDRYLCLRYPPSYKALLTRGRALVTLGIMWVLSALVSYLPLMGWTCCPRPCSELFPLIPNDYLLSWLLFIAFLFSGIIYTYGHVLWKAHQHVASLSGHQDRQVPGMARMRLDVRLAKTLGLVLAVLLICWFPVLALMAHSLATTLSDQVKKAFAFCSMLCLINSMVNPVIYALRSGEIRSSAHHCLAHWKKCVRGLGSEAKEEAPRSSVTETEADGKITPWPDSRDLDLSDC
Experimental: as §1, §2

5-HT1B (h) = biological target: T4, 5-HT1B (h) (Homo sapiens, UniProt P28222); test: Radioligand binding 5-HT1B (h) (antagonist radioligand), [^3H]GR125743, Chem-1 RBL cells
T4 construct: expressed in transfected cells; host or cells: Chem-1 RBL cells
T4 sequence (P28222 whole entry): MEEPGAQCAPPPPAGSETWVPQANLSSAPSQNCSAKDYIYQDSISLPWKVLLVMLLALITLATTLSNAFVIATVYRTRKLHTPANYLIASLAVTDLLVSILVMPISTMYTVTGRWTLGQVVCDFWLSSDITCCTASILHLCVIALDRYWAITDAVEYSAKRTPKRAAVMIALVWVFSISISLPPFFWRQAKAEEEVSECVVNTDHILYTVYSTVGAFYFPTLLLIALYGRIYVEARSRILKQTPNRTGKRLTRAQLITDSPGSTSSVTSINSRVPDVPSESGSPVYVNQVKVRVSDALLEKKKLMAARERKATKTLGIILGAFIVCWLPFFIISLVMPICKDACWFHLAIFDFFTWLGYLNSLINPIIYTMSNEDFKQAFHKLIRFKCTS

5-HT3 (h) = biological target: T5, 5-HT3 (h) (Homo sapiens, UniProt P46098); test: Radioligand binding 5-HT3 (h) (antagonist radioligand), [^3H]BRL 43694, CHO cells
T5 construct: expressed in transfected cells; host or cells: CHO cells
T5 sequence (P46098 24-478): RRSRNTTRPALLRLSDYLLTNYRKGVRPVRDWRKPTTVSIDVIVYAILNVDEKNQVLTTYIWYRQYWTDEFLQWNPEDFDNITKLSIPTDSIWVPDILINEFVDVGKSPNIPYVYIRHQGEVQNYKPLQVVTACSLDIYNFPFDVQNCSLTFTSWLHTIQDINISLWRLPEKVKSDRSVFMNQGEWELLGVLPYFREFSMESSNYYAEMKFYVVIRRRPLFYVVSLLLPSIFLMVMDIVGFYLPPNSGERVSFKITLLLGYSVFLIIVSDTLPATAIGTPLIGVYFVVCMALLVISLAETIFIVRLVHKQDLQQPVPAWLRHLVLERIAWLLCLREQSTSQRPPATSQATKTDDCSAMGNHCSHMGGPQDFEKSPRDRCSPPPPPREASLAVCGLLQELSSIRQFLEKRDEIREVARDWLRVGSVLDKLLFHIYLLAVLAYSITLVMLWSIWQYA
Experimental: as §1, §2

alpha1A (h) = biological target: T6, alpha1A (h) (Homo sapiens, UniProt P35348); test: Radioligand binding alpha1A (h) (antagonist radioligand), [^3H]prazosin, CHO cells
T6 construct: expressed in transfected cells; host or cells: CHO cells
T6 sequence (P35348 1-466): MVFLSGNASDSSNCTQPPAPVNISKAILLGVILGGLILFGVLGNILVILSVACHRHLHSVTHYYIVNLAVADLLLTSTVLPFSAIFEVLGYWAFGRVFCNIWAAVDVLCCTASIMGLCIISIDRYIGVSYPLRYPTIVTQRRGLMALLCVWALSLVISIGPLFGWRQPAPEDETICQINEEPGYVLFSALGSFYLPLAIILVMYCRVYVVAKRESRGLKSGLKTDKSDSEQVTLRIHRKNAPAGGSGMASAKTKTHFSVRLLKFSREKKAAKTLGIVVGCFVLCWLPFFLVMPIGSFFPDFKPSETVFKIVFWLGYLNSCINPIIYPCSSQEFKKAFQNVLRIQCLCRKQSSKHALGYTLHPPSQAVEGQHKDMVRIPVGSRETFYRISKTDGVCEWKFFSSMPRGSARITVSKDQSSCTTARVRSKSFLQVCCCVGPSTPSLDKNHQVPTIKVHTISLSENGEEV
Experimental: as §1, §2

M3 (h) = biological target: T7, M3 (h) (Homo sapiens, UniProt P20309); test: Radioligand binding M3 (h) (antagonist radioligand), [^3H]4-DAMP, CHO cells
T7 construct: expressed in transfected cells; host or cells: CHO cells
T7 sequence (P20309 whole entry): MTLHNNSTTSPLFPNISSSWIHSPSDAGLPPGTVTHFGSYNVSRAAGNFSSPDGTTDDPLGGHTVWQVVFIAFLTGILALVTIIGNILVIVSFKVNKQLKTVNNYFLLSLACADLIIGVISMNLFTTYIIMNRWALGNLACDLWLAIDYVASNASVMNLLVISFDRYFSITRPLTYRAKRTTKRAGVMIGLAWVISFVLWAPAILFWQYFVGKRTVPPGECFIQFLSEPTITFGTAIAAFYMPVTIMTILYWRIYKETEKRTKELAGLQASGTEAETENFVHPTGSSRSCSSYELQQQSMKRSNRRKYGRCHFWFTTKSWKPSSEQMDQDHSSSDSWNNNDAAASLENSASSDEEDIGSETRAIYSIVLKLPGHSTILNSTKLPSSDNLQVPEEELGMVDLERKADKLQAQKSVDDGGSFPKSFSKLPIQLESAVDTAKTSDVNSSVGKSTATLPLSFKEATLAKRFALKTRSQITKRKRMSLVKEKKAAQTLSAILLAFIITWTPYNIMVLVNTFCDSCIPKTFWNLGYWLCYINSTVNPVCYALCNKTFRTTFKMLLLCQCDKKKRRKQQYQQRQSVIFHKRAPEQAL
Experimental: as §1, §2

KV channel = format: binding, rat; conditions: KV channel (antagonist radiolig.)
A2A (h) = biological target: T8, A2A (h) (Homo sapiens, UniProt P29274); test: Radioligand binding A2A (h) (agonist radioligand), [^3H]CGS 21680, HEK-293 cells
T8 construct: expressed in transfected cells; host or cells: HEK-293 cells
T8 sequence (P29274 whole entry): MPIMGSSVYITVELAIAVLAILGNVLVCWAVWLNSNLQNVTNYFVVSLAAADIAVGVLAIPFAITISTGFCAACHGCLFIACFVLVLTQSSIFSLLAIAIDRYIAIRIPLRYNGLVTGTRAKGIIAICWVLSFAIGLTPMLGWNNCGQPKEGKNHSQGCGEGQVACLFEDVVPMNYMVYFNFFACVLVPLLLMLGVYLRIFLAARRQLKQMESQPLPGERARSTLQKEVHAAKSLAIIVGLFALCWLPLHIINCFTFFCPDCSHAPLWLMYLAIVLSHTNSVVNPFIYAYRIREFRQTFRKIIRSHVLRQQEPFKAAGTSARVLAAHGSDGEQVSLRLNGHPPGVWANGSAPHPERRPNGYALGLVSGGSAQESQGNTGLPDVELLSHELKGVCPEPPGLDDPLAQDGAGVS
Experimental: as §1, §2

Na^+ channel (site 2) = conditions: Na+ channel (site 2) (antagonist radioligand); footnote: Sodium Channel Site2 (Non-selective) Rat Ion Channel Batrachotoxin Mass Spectr. Binding

| Compound | Mean Percent Inhibition of Control Specific Binding (alpha1D (h)) | Mean Percent Inhibition of Control Specific Binding (N neuronal α4β2 (h)) | Mean Percent Inhibition of Control Specific Binding (CB2 (h)) | Mean Percent Inhibition of Control Specific Binding (5-HT1B (h)) | Mean Percent Inhibition of Control Specific Binding (5-HT3 (h)) | Mean Percent Inhibition of Control Specific Binding (alpha1A (h)) | Mean Percent Inhibition of Control Specific Binding (M3 (h)) | Mean Percent Inhibition of Control Specific Binding (KV channel) | Mean Percent Inhibition of Control Specific Binding (A2A (h)) | Mean Percent Inhibition of Control Specific Binding (Na^+ channel (site 2)) |
| --- | --- | --- | --- | --- | --- | --- | --- | --- | --- | --- |
| COCc1cc(CCN)c(O)cc1CC(C)C [2CiBu-2OH-5MM, 2-(2-aminoethyl)-5-isobutyl-4-(methoxymethyl)phenol] | 11.8% | −10.0% | −6.0% | 12.6% | −3.9% | 51.6% | 10.6% | 12.7% | 11.0% | 66% |
| COCCc1cc(CCN)c(OC)cc1Br [Compound 2CB-5ME, reference compound] | 10.0% | 7.4% | −22.8% | 91.4% | −1.6% | 33.6% | 47.9% | −4.3% | −21.3% | 46.9% |
| COCc1cc(CCN)c(OC)cc1Br [Compound 2CB-5MM, 2-(4-bromo-2-methoxy-5-(methoxymethyl)phenyl)ethan-1-amine] | 9.5% | −0.1% | −14.9% | 74.2% | 11.6% | 29.4% | 29.2% | 0.7% | 12.2% | 21.6% |
| COCc1cc(CCN)c(OC)cc1CC(C)C [Compound 2CiBu-5MM, 2-[4-isobutyl-2-methoxy-5-(methoxymethyl)phenyl]ethanamine] | 0.5% | −2.6% | 17.8% | 57.3% | 2.6% | 7.6% | 31.8% | −4.2% | 1.1% | 70.4% |
